Patent US6762188B1, “Pharmaceutically active benzoquinazoline compounds” (SmithKline Beecham Corporation, priority 1990, dated 2004)
Read-outs that look alike come from different tables or passages of the source. One block for each compound: values may come before it.

Key:
[1] = tested on: SW480 human colon adenocarcinoma; assay: Tumor cell culture cytotoxicity (MTT dye reduction), SW480
Procedure: SW480 and WiDr colon adenocarcinomas, MCF-7 breast adenocarcinoma, A427 lung carcinoma and MOLT-4 T-cell leukemia were used for the primary screening of compounds. […] MCF-7, A427 and SW480 were grown in the above medium further supplemented with sodium pyruvate.
(§1) Cells are seeded into 96-well plates using a Perkin-Elmer Pro/pette. SW480 and A427 were seeded at 8,000 cells per well, MCF-7 at 10,000, Widr at 7500, and MOLT-4 at 12,500 cells per well, all in 150 µl of medium. Prior to the addition of drugs, cultures were incubated for 24 hrs at 37°. Compounds were added at 2×concentration in 150 l of medium and each concentration was assayed in triplicate. If DMSO or ethanol were used to solubilize compounds, appropriate controls were run if the concentration exceeded 0.01%. Cultures were incubated for 72 hours (96 hours for SW480 and MCF-7) in a 37° humidified incubator at 5% CO2. Inhibition of cell growth was measured using the MTT dye reduction assay.
(§2) Cell dilutions for a standard curve were prepared from a 72 hour log-phase culture. Serial dilutions were seeded in triplicate in 96-well plates and incubated at 37 degrees for one hour. MTT (3-(4,5-dimethylthiazol-2-yl)-2,5-diphenyltetrazolium bromide) was dissolved in PBS at 5 mg/ml and sonicated for 30 seconds. Using the Perkin Elmer Pro/pette, 200 μl of medium was removed and 100 μl of MTT added to the wells of the standard curve and test plates. Suspension cultures were spun for 5 min at 1000 rpm before removing medium from the wells. Plates were incubated for 1 hour at 370 on a platform shaker. Following this incubation 100 ml of medium was removed from the wells and 100 μl of DMSO added to each well. The plates were sonicated for approximately 10 seconds to solubilize the precipitated formazan dye. The absorbance of each well was measured using a Titertek Multiscan MC microtiter plate reader at 570 nm with a reference wavelength of 750 nm. Data was collected using a Mariachi Seed-2 and stored and analyzed using an IBM-AT and Lotus 1-2-3 software.

[2] = target: T1, Mammalian Thymidylate Synthase (Homo sapiens, UniProt P04818); assay: Thymidylate synthase inhibition, tritium release assay; type: biochemical
T1 construct: made in house; host or cells: Escherichia coli

[3] = Cell culture cytotoxicity, D98; type: cell-based; settings: human, D98 bone marrow cell line, read-out: Tumor Cell Culture Cytotoxicity IC50 Other (D98)
Procedure: as §1, §2

[4] = Cell culture cytotoxicity, L cells; type: cell-based; settings: mouse, L fibroblast cell line, read-out: Tumor Cell Culture Cytotoxicity IC50 Other (L)
Procedure: as §1, §2

[5] = Homo sapiens, SW480, read-out: Tumor Cell Culture Cytotoxicity IC50 SW480, Table B, fully aromatic 3-amino derivatives
[6] = Table D, 5,6-dihydro 3-methyl derivatives
[7] = Table B, fully aromatic 3-amino derivatives
[8] = Homo sapiens, SW480, read-out: Tumor Cell Culture Cytotoxicity IC50 SW480, Table E, fully aromatic 3-methyl derivatives
[9] = Table E, fully aromatic 3-methyl derivatives
[10] = Table C, 5,6-dihydro 3-amino derivatives
[11] = Homo sapiens, SW480, read-out: Cell Culture Cytotoxicity CCCT SW-480, Table G, dihydrobenzoquinazoline p-aminobenzoylglutamates
[12] = Homo sapiens, SW480, read-out: Cell Culture Cytotoxicity CCCT SW-480, Table F, fully aromatic p-aminobenzoylglutamates
[13] = Homo sapiens, SW480, read-out: Tumor Cell Culture Cytotoxicity IC50 SW480, Table D, 5,6-dihydro 3-methyl derivatives

T1 sequence (P04818 whole entry): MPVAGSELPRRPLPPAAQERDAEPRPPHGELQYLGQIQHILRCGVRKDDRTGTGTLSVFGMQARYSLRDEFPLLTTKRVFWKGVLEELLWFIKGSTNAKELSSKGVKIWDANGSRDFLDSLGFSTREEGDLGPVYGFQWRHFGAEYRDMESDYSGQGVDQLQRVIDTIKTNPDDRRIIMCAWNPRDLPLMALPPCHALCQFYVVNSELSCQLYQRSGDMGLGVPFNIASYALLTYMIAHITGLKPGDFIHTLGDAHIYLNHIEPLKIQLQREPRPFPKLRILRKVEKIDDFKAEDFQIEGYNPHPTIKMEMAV

Compound: CCN(CC)S(=O)(=O)c1cc2c(ccc3nc(N)[nH]c(=O)c32)cc1Br [3-Amino-8-bromo-N,N-diethyl-1,2-dihydro-1-oxobenzo(f)quinazoline-9-sulfonamide]
IC50 [1, 5]: 2.5 µM
IC50 [2]: 1 to 300 µM

IC50 [2]: < 1 µM
Compound: Cc1cc2nc(N)nc(O)c2c2cc(Cl)ccc12 [3-Amino-9-chloro-6-methylbenzo(f)quinazolin-1(2H)-one]
IC50 [1, 5]: 2 µM

Compound: Cc1nc(O)c2c(n1)CCc1ccc(I)cc1-2 [5,6-Dihydro-9-iodo-3-methylbenzo(f)quinazolin-1(2H)-one]
IC50 at 72 h [3, 6]: 70 µM
IC50 at 72 h [4, 6]: 80 µM

IC50 [2]: 1 to 300 µM
Compound: Cc1cccc2c1ccc1nc(N)[nH]c(=O)c12 [3-Amino-7-methylbenzo(f)quinazolin-1(2H)-one]
IC50 [1, 5]: 35 µM
IC50 at 72 h [3, 7]: 53 µM
IC50 at 72 h [4, 7]: 32 µM

IC50 [2]: < 1 µM
Compound: Nc1nc2ccc3ccc(Br)c([N+](=O)[O-])c3c2c(=O)[nH]1 [3-Amino-9-bromo-10-nitrobenzo(f)quinazolin-1(2H)-one]
IC50 [1, 5]: 20 µM

Compound: Cc1nc2ccc3ccc(CNc4ccc5c(c4)CCC5=O)cc3c2c(=O)[nH]1 [3-Methyl-9-(((1-oxo-5-indanyl)amino)methyl)benzo)[f]quinazolin-1(2H)-one]
IC50 [1, 8]: 0.015 µM
IC50 at 72 h [3, 9]: 0.25 µM
IC50 at 72 h [4, 9]: 0.058 µM

IC50 [2]: 1 to 300 µM
Compound: Nc1nc2ccc3cc(F)cc([N+](=O)[O-])c3c2c(=O)[nH]1 [3-Amino-8-fluoro-10-nitrobenzo(f)quinazolin-1(2H)-one]
IC50 [1, 5]: 50 µM

IC50 [2]: 1 to 300 µM
Compound: Nc1nc2ccc3c(N)c(Br)ccc3c2c(=O)[nH]1 [3,7-Diamino-8-bromobenzo(f)quinazolin-1(2H)-one]
IC50 [1, 5]: 20 µM

IC50 [2]: 1 to 300 µM
Compound: Nc1ccc2c(ccc3nc(N)nc(O)c32)c1 [3,8-Diaminobenzo(f)quinazolin-1(2H)-one]
IC50 [1, 5]: 100 µM
IC50 at 72 h [3, 7]: 53 µM
IC50 at 72 h [4, 7]: 40 µM

Compound: Nc1nc2c3ccccc3c3ccccc3c2c(=O)[nH]1 [2-Aminodibenzo(f,h)quinazolin-4(3H)-one]
IC50 [1, 5]: 4 µM
IC50 [2]: 1 to 300 µM

Compound: Cc1nc2ccc3c(Cl)cccc3c2c(=O)[nH]1 [7-Chloro-3-methylbenzo(f)quinazolin-1(2H)-one]
IC50 at 72 h [4, 9]: 84 µM

Compound: Cc1nc2ccc3ccc(CNc4ccc(C(=O)CCC(=O)O)cc4)cc3c2c(=O)[nH]1 [4-(4-(((1,2-Dihydro-3-methyl-1-oxobenzo[f]quinazolin-9-yl)methyl)amino)phenyl)-4-oxobutyric acid]
IC50 [1, 8]: 0.7 µM
IC50 at 72 h [3, 9]: 13.5 µM
IC50 at 72 h [4, 9]: 8.8 µM

IC50 [2]: < 1 µM
Compound: CCc1ccc2ccc3nc(N)[nH]c(=O)c3c2c1 [3-Amino-9-ethylbenzo(f)quinazolin-1(2H)-one]
IC50 [1, 5]: 20 µM

Compound: Cc1nc(O)c2c(ccc3ccc(F)cc32)n1 [9-Fluoro-3-methylbenzo(f)quinazolin-1(2H)-one]
IC50 at 72 h [3, 9]: 72 µM
IC50 at 72 h [4, 9]: 50 µM

Compound: CSc1ccc2c(c1)-c1c(nc(N)[nH]c1=O)CC2 [3-Amino-5,6-dihydro-9-(methylthio)benzo(f)quinazolin-1(2H)-one]
IC50 at 72 h [4, 10]: 46 µM

Compound: Nc1nc2c(c(=O)[nH]1)-c1ccc(S(=O)(=O)Nc3ccc(C(=O)N[C@@H](CCC(=O)O)C(=O)O)cc3)cc1CC2 [N-(4-(((3-Amino-1,2,5,6-tetrahydro-1-oxobenzo(f)quinazolin-8-yl)sulfonyl)amino)benzoyl)-L-glutamic acid]
IC50 [1, 11]: 25 µM

Compound: C#CCN(CC#C)S(=O)(=O)c1ccc2c(c1)CCc1nc(N)[nH]c(=O)c1-2 [8-SO2N-(Propargyl)2, 3-Amino-1,2,5,6-tetrahydro-1-oxo-N,N-bis(prop-2-vnyl)benzo[f]quinazoline-8-sulfonamide]
IC50 ([1]; read-out: Tumor Cell Culture Cytotoxicity IC50 SW480, Table C, 5,6-dihydro 3-amino derivatives): 60 µM

Compound: Cc1nc2ccc3ccc(CNc4ccc([N+](=O)[O-])cc4)cc3c2c(=O)[nH]1 [3-Methyl-9-((4-nitroanilino)methyl)benzo)(f)quinazolin-1(2H)-one]
IC50 [1, 8]: 0.4 µM

Compound: Cc1nc2ccc3ccc(/C=C/c4ccc(C(=O)N[C@@H](CCC(=O)O)C(=O)O)cc4)cc3c2c(=O)[nH]1 [(E)-N-(4-(2(1,2-Dihydro-3-methyl-1-oxobenzo[f]quinazolin-9-yl)vinyl)benzoyl)-L-glutamic acid]
IC50 [1, 12]: > 100 µM

IC50 [2]: 1 to 300 µM
Compound: Nc1nc2ccc3c(F)cccc3c2c(=O)[nH]1 [3-Amino-7-fluorobenzo(f)quinazolin-1(2H)-one]
IC50 [1, 5]: 30 µM

Compound: Cc1nc2c(c(=O)[nH]1)-c1cc(S(=O)(=O)Nc3ccc(F)cc3)ccc1CC2 [4′-Fluoro-1,2,5,6-tetrahydro-3-methyl-1-oxobenzo(f)quinazoline-9-sulfonanilide]
IC50 [1, 13]: 25 µM

IC50 [2]: 1 to 300 µM
Compound: Nc1nc2ccc3cc(F)cc(N)c3c2c(=O)[nH]1 [3,10-Diamino-8-fluorobenzo(f)quinazolin-1(2H)-one]
IC50 [1, 5]: 70 µM

Compound: Cc1nc2ccc3ccc(CCc4ccc(C(=O)N[C@@H](CCC(=O)O)C(=O)O)cc4)cc3c2c(=O)[nH]1 [N-(4-(2-(1,2-Dihydro-3-methyl-1-oxobenzo[f]quinazolin-9-yl)ethyl)benzoyl)-L-glutamic acid]
IC50 [1, 12]: 9 µM

Compound: Cc1nc2c(c(=O)[nH]1)-c1ccc([N+](=O)[O-])cc1CC2 [Example 8-NO2, 5,6-dihydro-3-methyl-8-nitrobenzo[f]quinazolin-1(2H)-one]
IC50 [1, 13]: 100 µM
IC50 at 72 h [3, 6]: 52 µM
IC50 at 72 h [4, 6]: 52 µM

Compound: Cc1nc2ccc3ccc(CNc4ccc(C(=O)N[C@@H](CCC(=O)O)C(=O)O)s4)cc3c2c(=O)[nH]1 [N-((5-(((1,2-Dihydro-3-methyl-1-oxobenzo[f]quinazolin-9-yl)methyl)amino-2-thienyl)carbonyl)-L-glutamic acid]
IC50 ([1]; read-out: Tumor Cell Culture Cytotoxicity IC50 SW480, Table E, fully aromatic 3-methyl derivatives): 0.1 µM

Compound: Cc1nc2ccc3ccc(Cl)cc3c2c(=O)[nH]1 [9-Chloro-3-methylbenzo(f)quinazolin-1(2H)-one]
IC50 at 72 h [3, 9]: 82 µM
IC50 at 72 h [4, 9]: 80 µM

Compound: Cc1nc2ccc3ccc(CNc4ccc5c(=O)n([C@@H](CCC(=O)O)C(=O)O)sc5c4)cc3c2c(=O)[nH]1 [CH3,9-CH2NH, 2′-SNglu, (S)-2-(2.3-Dihydro-6-(((1,2-dihydro-3-methyl-1-oxobenzo[f]quinazolin-9-yl)methyl)amino)-3-oxo-1,2-benxisothiazol-2-yl)glutaric acid]
IC50 ([1]; read-out: Cell Culture Cytotoxicity CCCT SW-480, Table F, fully aromatic p-aminobenzoylglutamates): 2 µM

IC50 [2]: < 1 µM
Compound: Nc1ccc2ccc3nc(N)[nH]c(=O)c3c2c1 [3,9-Diaminobenzo(f)quinazolin-1(2H)-one]
IC50 [1, 5]: 80 µM

Compound: CCSc1ccc2c(c1)-c1c(nc(N)[nH]c1=O)CC2 [3-Amino-9-(ethylthio)-5,6-dihydrobenzo(f)quinazolin-1(2H)-one]
IC50 at 72 h [3, 10]: 54 µM
IC50 at 72 h [4, 10]: 33 µM

IC50 [2]: < 1 µM
Compound: Nc1nc2ccc3ccc(Br)c(N)c3c2c(=O)[nH]1 [3,10-Diamino-9-bromobenzo(f)quinazolin-1(2H)-one]
IC50 [1, 5]: 30 µM

IC50 [2]: 1 to 300 µM
Compound: Nc1nc2ccc3c(I)cccc3c2c(=O)[nH]1 [3-Amino-7-iodobenzo(f)quinazolin-1(2H)-one]
IC50 [1, 5]: 10 µM

Compound: Cc1nc2ccc3ccc(Oc4ccc(C#N)cc4)cc3c2c(=O)[nH]1 [4-((1,2-Dihydro-3-methyl-1-oxobenzo[f]quinazolin-9-yl)oxy)benzonitrile]
IC50 [1, 8]: > 10 µM

IC50 [2]: < 1 µM
Compound: Cc1ccc2ccc3nc(N)nc(O)c3c2c1 [3-Amino-9-methylbenzo(f)quinazolin-1(2H)-one]
IC50 [1, 5]: 30 µM
IC50 at 72 h [4, 7]: 8 µM

IC50 [2]: < 1 µM
Compound: Nc1nc2ccc3ccc(O)cc3c2c(=O)[nH]1 [3-Amino-9-hydroxybenzo(f)quinazolin-1(2H)-one]
IC50 [1, 5]: 40 µM

Compound: CCN(CC)S(=O)(=O)c1cc2c(cc1Br)CCc1nc(N)[nH]c(=O)c1-2 [3-Amino-8-bromo-N,N-diethyl-1,2,5,6-tetrahydro-1-oxobenzo(f)quinazoline-9-sulfonamide]
IC50 ([1]; Homo sapiens, SW480, read-out: Tumor Cell Culture Cytotoxicity IC50 SW480, Table C, 5,6-dihydro 3-amino derivatives): 7.5 µM

Compound: Cc1nc2c(c(=O)[nH]1)-c1cc(S(=O)(=O)N(C)c3ccc(C(=O)N[C@@H](CCC(=O)O)C(=O)O)cc3)ccc1CC2 [N-(4-(Methyl((1,2,5,6-tetrahydro-3-methyl-1-oxobenzo(f)quinazolin-9-yl)sulfonyl)amino)benzoyl)-L-glutamic acid]
IC50 [1, 11]: > 50 µM

Compound: Cc1nc2ccc3cc(CNc4ccc(C(=O)N[C@@H](CCC(=O)O)C(=O)O)cc4)ccc3c2c(=O)[nH]1 [N-(4-(((1,2-Dihydro-3-methyl-1-oxobenzo[f]quinazolin-8-yl)methyl)amino)benzoyl)-L-glutamic acid]
IC50 [1, 12]: > 100 µM

Compound: C=Cc1ccc2ccc3nc(N)[nH]c(=O)c3c2c1 [Example 9-Ethenyl, 3-Amino-9-vinylbenzo[f]quinazolin-1(2H)-one]
IC50 [1, 5]: 6 µM

IC50 [2]: 1 to 300 µM
Compound: Nc1nc2ccc3c([N+](=O)[O-])c(Br)ccc3c2c(=O)[nH]1 [3-Amino-8-bromo-7-nitrobenzo(f)quinazolin-1(2H)-one]
IC50 [1, 5]: 25 µM
